Data taken from patent US9452154B2, “Methods for treating HCV” (Gilead Sciences, Inc., priority 2010, dated 2016).
Several values for one entry are separate records, joined by “and”; a condition that tells them apart may be missing. Identical values can stand only once. Like-named read-outs stand apart in the source and are kept apart here.

Legend:
[1] = Drug-drug interaction: exposure on co-administration with Compound 2
[2] = system: HCV genotype 1a replicon; assay: Biological Example 3: antiviral combination studies with Compound 4 (MacSynergy II); conditions: in combination with Compound 4
[3] = system: Huh-7 cells carrying a HCV genotype 1a replicon; assay: Biological Example 3: cytotoxicity in combination studies (MacSynergy II); conditions: in combination with Compound 4
[4] = system: HCV 1b RLuc; assay: microbe, parasite or virus in culture; type: cell-based; conditions: Hepatitis C virus, read-out: antiviral potency [EC50]
[5] = system: Huh-luc replicon cells; assay: Biological Example 5: cellular cytotoxicity (CellTiter-Glo); conditions: highest concentrations tested (column Concentration(s)); relative to untreated controls
Method: Replicon cells were seeded and treated with drugs as described for the antiviral combination studies above. After three day incubation at 37° C., the culture media was removed and cells were lysed and assayed for cytotoxicity using a CellTiter-Glo Luminescent Cell Viability Assay (Promega) according to the manufacturer's instructions. Relative Light Units were converted into percentages relative to the untreated controls (defined as 100%).

[6] = system: GT-1b Huh-lunet cells; assay: Biological Example 4: antiviral combination studies with Compound 5 (MacSynergy II); type: cell-based, HCV; conditions: in combination with Compound 5, 1b replicon cells
[7] = system: GT1b and GT1a mutant replicons; assay: Biological Example 8: summary of cross resistance of mutant replicons; type: cell-based, HCV; conditions: all single NS3 PI-resistant mutants
[8] = system: Genotype 1b replicon cells; assay: Biological Example 6: compound concentration required to suppress replicon RNA by 1-1.5 log over 6 days (QRT-PCR); type: cell-based, HCV; conditions: 6 day assay
Method: Flasks were incubated at 37° C., media and compounds were refreshed every two days. After 6 days of incubation the replicon cells were collected for RNA extraction and replicon RNA QRT-PCR analysis.

[9] = system: HCV genotype 1a replicon; assay: Biological Example 3: HCV genotype 1a replicon assay, EC50; type: cell-based; conditions: Hepatitis C virus, 72 h, 3 days, read-out: EC50
[10] = Biological Example 3: cytotoxicity (calcein AM), CC50; type: cell-based; conditions: human, Huh-7 cells carrying a HCV genotype 1a replicon; HCV genotype 1a replicon cells; calcein AM
[11] = system: NS3 GT1b mutant replicons; type: cell-based, HCV
[12] = system: NS3 GT1a mutant replicons; type: cell-based, HCV
[13] = system: HCV 1b replicon system; assay: Biological Example 5: antiviral combination studies with Compound 6 (MacSynergy II); type: cell-based; conditions: in combination with Compound 6
[14] = system: Genotype 1b replicon cells; assay: Biological Example 6: compound combination replicon cure assay; conditions: after 6 days treatment, G418 for 14 days; Compound 6 4 pM, Compound 4 1000 nM, Compound 1 10 nM, Compound 3 26.25 nM
[15] = mutant R155K + Y488H (first line, r20)
[16] = mutant R155K + Y488H (second line, r26)

COC(=O)N[C@H](C(=O)N1CC2(CC2)C[C@H]1c1ncc(-c2ccc3c(c2)C(F)(F)c2cc(-c4ccc5nc([C@@H]6[C@H]7CC[C@H](C7)N6C(=O)[C@@H](NC(=O)OC)C(C)C)[nH]c5c4)ccc2-3)[nH]1)C(C)C [Compound 6, (1-{3-[6-(9,9-Difluoro-7-{2-[5-(2-methoxycarbonylamino-3-methyl-butyryl)-5-aza-spiro[2.4]hept-6-yl]-3H-imidazol-4-yl}-9H-fluoren-2-yl)-1H-benzoimidazol-2-yl]-2-aza-bicyclo[2.2.1]heptane-2-carbonyl}-2-methyl-propyl)-carbamic acid methyl ester]
increase of exposure when combined with Compound 2 [1]: approximately 5 × | Antagonism Volume [2]: −7 ± 7 nM^2% | Interaction [2]: Additivity (Additivity: ≦25 and >−25 nM^2%) | Synergy Volume [2]: 19 ± 17 nM^2% | Antagonism Volume (cytotoxicity) [3]: 0 ± 0 nM^2% | Interaction (cytotoxicity) [3]: Additivity (Additivity: ≦25 and >−25 nM^2%) | Synergy Volume (cytotoxicity) [3]: 8 ± 4 nM^2% | EC50 [4]: 0.0045 nM | Cell Viability % [5]: 99 ± 1% | Antagonism Volume [6]: 0 ± 0 nM^2 | Synergy Volume [6]: 34 ± 19 nM^2 | susceptibility of mutants [7]: full susceptibility | Compound concentration able to induce replicon RNA 1-1.5 log drop [8]: 0.004 nM | EC50 [9]: 0.033 ± 0.011 nM | CC50 at 3 days [10]: > 44400 nM | fold change in EC50 vs wild-type GT1b ([11]; mutant A156D): 0.4 fold | fold change in EC50 vs wild-type GT1b ([11]; mutant A156G): 0.9 fold | fold change in EC50 vs wild-type GT1b ([11]; mutant A156T): 0.4 fold | fold change in EC50 vs wild-type GT1b ([11]; mutant A156V): 0.4 fold | fold change in EC50 vs wild-type GT1b ([11]; mutant D168A): 0.8 fold | fold change in EC50 vs wild-type GT1b ([11]; mutant D168E): 1.0 fold | fold change in EC50 vs wild-type GT1b ([11]; mutant D168E + L31V + Y448H): >210 fold | fold change in EC50 vs wild-type GT1b ([11]; mutant D168E + Y93H + Y448H): >613 fold | fold change in EC50 vs wild-type GT1b ([11]; mutant D168E + Y448H): 0.7 fold | fold change in EC50 vs wild-type GT1b ([11]; mutant D168G): 0.6 fold | fold change in EC50 vs wild-type GT1b ([11]; mutant D168H): 1.2 fold | fold change in EC50 vs wild-type GT1b ([11]; mutant D168H + C445F): 0.3 fold | fold change in EC50 vs wild-type GT1b ([11]; mutant D168L + C445F): 0.4 fold | fold change in EC50 vs wild-type GT1b ([11]; mutant D168N): 0.9 fold | fold change in EC50 vs wild-type GT1b ([11]; mutant D168T): 0.8 fold | fold change in EC50 vs wild-type GT1b ([11]; mutant D168V): 0.9 fold | fold change in EC50 vs wild-type GT1b ([11]; mutant D168V + C445F): 0.4 fold | fold change in EC50 vs wild-type GT1b ([11]; mutant D168V + L31V + Y448H): >126 fold | fold change in EC50 vs wild-type GT1b ([11]; mutant D168V + Y93H + Y448H): >664 fold | fold change in EC50 vs wild-type GT1b ([11]; mutant D168V + Y448H): 0.5 fold | fold change in EC50 vs wild-type GT1b ([11]; mutant D168Y): 0.7 fold | fold change in EC50 vs wild-type GT1b ([11]; mutant L31V + D168E): 228.7 fold | fold change in EC50 vs wild-type GT1b ([11]; mutant L31V + D168V): 117.5 fold | fold change in EC50 vs wild-type GT1b ([11]; mutant R155C): 0.9 fold | fold change in EC50 vs wild-type GT1b ([11]; mutant R155G): 0.7 fold | fold change in EC50 vs wild-type GT1b ([11]; mutant R155K): 2.3 fold | fold change in EC50 vs wild-type GT1b ([11]; mutant R155L): 0.7 fold | fold change in EC50 vs wild-type GT1b ([11]; mutant R155Q): 0.7 fold | fold change in EC50 vs wild-type GT1b ([11]; mutant R155W): 0.4 fold | fold change in EC50 vs wild-type GT1b ([11]; mutant Y93H + D168E): >570 fold | fold change in EC50 vs wild-type GT1b ([11]; mutant Y93H + D168V): >1140 fold | fold change in EC50 vs wild-type GT1a ([12]; mutant A156T): 0.2 fold | fold change in EC50 vs wild-type GT1a ([12]; mutant D168A): 1.1 fold | fold change in EC50 vs wild-type GT1a ([12]; mutant D168E): 1.3 fold | fold change in EC50 vs wild-type GT1a ([12]; mutant D168G): 0.8 fold | fold change in EC50 vs wild-type GT1a ([12]; mutant D168H): 1.1 fold | fold change in EC50 vs wild-type GT1a ([12]; mutant D168N): 1.2 fold | fold change in EC50 vs wild-type GT1a ([12]; mutant D168V): 1.2 fold | fold change in EC50 vs wild-type GT1a ([12]; mutant D168Y): 0.8 fold | fold change in EC50 vs wild-type GT1a ([12]; mutant R155I): 0.5 fold | fold change in EC50 vs wild-type GT1a ([12]; mutant R155K): 0.6 fold | fold change in EC50 vs wild-type GT1a ([12]; mutant R155K + L31M): 96.9 fold | fold change in EC50 vs wild-type GT1a ([12]; mutant R155K + L31M + Y448H): >330 fold | fold change in EC50 vs wild-type GT1a ([12]; mutant R155K + M28T): 12.3 fold | fold change in EC50 vs wild-type GT1a ([12]; mutant R155K + M28T + Y448H): 53.0 fold | fold change in EC50 vs wild-type GT1a ([12]; mutant R155K + Q30H + Y448H): 55.0 fold | fold change in EC50 vs wild-type GT1a ([12]; mutant R155K + Q30R): 85.3 fold | fold change in EC50 vs wild-type GT1a ([12]; mutant R155K + Y93H): >3000 fold | fold change in EC50 vs wild-type GT1a [12, 15]: 1.1 fold | fold change in EC50 vs wild-type GT1a [12, 16]: 0.5 fold | fold change in EC50 vs wild-type GT1a ([12]; mutant R155M): 0.3 fold | fold change in EC50 vs wild-type GT1a ([12]; mutant R155S): 0.3 fold | fold change in EC50 vs wild-type GT1a ([12]; mutant R155T): 0.3 fold | fold change in EC50 vs wild-type GT1a ([12]; mutant R155W): 0.7 fold | fold change in EC50 vs wild-type GT1a ([12]; mutant R155k + Q30H): 49.4 fold

CC[C@@H]1C[C@]1(NC(=O)[C@@H]1C[C@@H](Oc2cc(-c3csc(NC(C)C)n3)nc3c(Cl)c(OCCN4CCOCC4)ccc23)CC1C(=O)[C@@H](NC(=O)O[C@@H]1C[C@@H]2C[C@@H]2C1)C(C)(C)C)C(=O)O (some centres unmarked) [Compound 3]
Antagonism Volume [2]: −3 ± 2 nM^2% | Synergy Volume [2]: 26 ± 6 nM^2% | Antagonism Volume [13]: −0.1 ± 0.2 nM^2 | Interaction [13]: Strong Synergy | Synergy Volume [13]: 132 nM^2 and 132 ± 44 nM^2 | Antagonism Volume (cytotoxicity) [3]: 0 ± 0 nM^2% | Interaction (cytotoxicity) [3]: Additivity (Additivity: ≦25 and >−25 nM^2%) | Synergy Volume (cytotoxicity) [3]: 3 ± 5 nM^2% | Antagonism Volume [6]: −2 ± 2 nM^2 | Interaction [6]: Additive | Synergy Volume [6]: 19 ± 13 nM^2 | Compound concentration able to induce replicon RNA 1-1.5 log drop [8]: 26.25 nM | Uncured colony number [14]: 989 | EC50 [9]: 49 ± 18 nM | CC50 at 3 days [10]: > 22200 nM | fold change in EC50 vs wild-type GT1b ([11]; mutant R155L): 1.2 fold and 0.9 fold | fold change in EC50 vs wild-type GT1a ([12]; mutant A156T): >141 fold | fold change in EC50 vs wild-type GT1a ([12]; mutant D168A): >300 fold | fold change in EC50 vs wild-type GT1a ([12]; mutant D168E): 25.1 fold | fold change in EC50 vs wild-type GT1a ([12]; mutant D168G): >138 fold | fold change in EC50 vs wild-type GT1a ([12]; mutant D168H): >250 fold | fold change in EC50 vs wild-type GT1a ([12]; mutant D168N): 20.5 fold | fold change in EC50 vs wild-type GT1a ([12]; mutant D168V): >156 fold | fold change in EC50 vs wild-type GT1a ([12]; mutant D168Y): >175 fold | fold change in EC50 vs wild-type GT1a ([12]; mutant R155I): 0.9 fold | fold change in EC50 vs wild-type GT1a ([12]; mutant R155K): >150 fold | fold change in EC50 vs wild-type GT1a ([12]; mutant R155K + L31M): >100 fold | fold change in EC50 vs wild-type GT1a ([12]; mutant R155K + L31M + Y448H): >145 fold | fold change in EC50 vs wild-type GT1a ([12]; mutant R155K + M28T): >100 fold | fold change in EC50 vs wild-type GT1a ([12]; mutant R155K + M28T + Y448H): 89.0 fold | fold change in EC50 vs wild-type GT1a ([12]; mutant R155K + Q30H + Y448H): >130 fold | fold change in EC50 vs wild-type GT1a ([12]; mutant R155K + Q30R): >100 fold | fold change in EC50 vs wild-type GT1a ([12]; mutant R155K + Y93H): >100 fold | fold change in EC50 vs wild-type GT1a [12, 15]: >130 fold | fold change in EC50 vs wild-type GT1a [12, 16]: >100 fold | fold change in EC50 vs wild-type GT1a ([12]; mutant R155M): 1.5 fold | fold change in EC50 vs wild-type GT1a ([12]; mutant R155S): 4.0 fold | fold change in EC50 vs wild-type GT1a ([12]; mutant R155T): 2.3 fold | fold change in EC50 vs wild-type GT1a ([12]; mutant R155W): 32.1 fold | fold change in EC50 vs wild-type GT1a ([12]; mutant R155k + Q30H): >100 fold
